Columns and labels:
[1] = test system: rabbit serum obtained by immunizing a rabbit with the SARS-CoV strain Frankfurt 1; format: binding; design: Binding of a rabbit serum to linear peptides / Binding of a rabbit serum to looped peptides / Rabbit serum linear peptides / Rabbit serum looped peptides / Binding of a rabbit serum to linear peptides of protein N of SARS-CoV Urbani (Rabbit serum linear peptides) / Binding of a rabbit serum to looped/cyclic peptides of protein N of SARS-CoV Urbani (Rabbit serum looped peptides): unit not given here
[2] = test system: control sera (pooled serum of ten healthy LUMC hospital workers; commercial negative donor pooled serum from the Dutch bloodbank); format: binding, human; design: Binding of Control serum LUMC to linear peptides / Binding of Control serum Blood-bank to linear peptides / Binding of Control serum LUMC to looped peptides / Binding of Control Serum Blood-Bank to Looped peptides / Binding of Control serum LUMC to linear peptides of the protein M of SARS-CoV Urbani / Binding of Control serum Blood-bank to linear peptides of the protein M of SARS-CoV Urbani / Binding of Control serum LUMC to looped peptides of the protein M of SARS-CoV Urbani / Binding of Control Serum Blood-Bank to Looped peptides of the protein M of SARS-CoV Urbani: unit not given here
[3] = test system: antibodies in sera from SARS patients (sera 1a, 1b, 2, 6, 37, 62, London, SARS-yellow, SARS-green); format: binding, human; design: Binding of serum 6 to linear peptides of protein X1 of SARS-CoV Urbani / Binding of serum 37 to linear peptides of protein X1 of SARS-CoV Urbani / Binding of serum 6 to looped/cyclic peptide (PEPSCAN-ELISA) / Binding of serum 37 to looped/cyclic peptide (PEPSCAN-ELISA) / Binding of serum 37 to looped/cyclic peptides of protein X1 of SARS-CoV Urbani / Binding of serum 6 to linear peptides of protein X2 / Binding of serum 37 to linear peptides of protein X2 / Binding of serum 37 to looped/cyclic peptides of protein X2 of SARS-CoV Urbani / Binding of serum 6 to linear peptides of protein M of SARS-CoV Urbani / Binding of serum 37 to linear peptides of protein M of SARS-CoV Urbani / Binding of serum 6 to looped/cyclic peptides of protein M of SARS-CoV Urbani / Binding of serum 37 to looped/cyclic peptides of protein M of SARS-CoV Urbani / Binding of serum 6 to linear peptides of protein X3 of SARS-CoV Urbani / Binding of serum 37 to linear peptides of protein X3 of SARS-CoV Urbani / Binding of serum 37 to looped/cyclic peptides of protein X3 of SARS-CoV Urbani / Binding of serum 6 to linear peptides of protein X4 of SARS-CoV Urbani / Binding of serum 37 to linear peptides of protein X4 of SARS-CoV Urbani / Binding of serum 37 to looped/cyclic peptides of protein X4 of SARS-CoV Urbani / Binding of serum 6 to linear peptides of protein X5 of SARS-CoV Urbani / Binding of serum 37 to linear peptides of protein X5 of SARS-CoV Urbani / Binding of serum 37 to looped/cyclic peptides of protein X5 of SARS-CoV Urbani / Binding of serum 6 to linear peptides of protein N of SARS-CoV Urbani / Binding of serum 37 to linear peptides of protein N of SARS-CoV Urbani / Binding of serum 6 to linear peptide (PEPSCAN-ELISA) / Binding of serum 1a to looped/cyclic peptides of protein N of SARS-CoV Urbani / Binding of serum 1b to looped/cyclic peptides of protein N of SARS-CoV Urbani / Binding of serum 2 to looped/cyclic peptides of protein N of SARS-CoV Urbani / Binding of serum 6 to looped/cyclic peptides of protein N of SARS-CoV Urbani / Binding of serum 37 to looped/cyclic peptides of protein N of SARS-CoV Urbani / Binding of serum 62 to looped/cyclic peptides of protein N of SARS-CoV Urbani / Binding of serum London to looped/cyclic peptides of protein N of SARS-CoV Urbani / Binding of serum SARS-green to looped/cyclic peptides of protein N of SARS-CoV Urbani: unit not given here

MRFFTLGSITAQPVK
Binding of a rabbit serum to linear peptides [1]: 0.4
Binding of a rabbit serum to looped peptides [1]: 0.2
Binding of Control Serum Blood-Bank to Looped peptides [2]: 0.2
Binding of Control serum Blood-bank to linear peptides [2]: 0.4
Binding of Control serum LUMC to linear peptides [2]: 0.7
Binding of Control serum LUMC to looped peptides [2]: 0.4
Binding of serum 1a to linear peptides of protein X1 of SARS-CoV Urbani [3]: 0.6
Binding of serum 1a to looped/cyclic peptide (PEPSCAN-ELISA) [3]: 0.3
Binding of serum 1b to linear peptides of protein X1 of SARS-CoV Urbani [3]: 0.4
Binding of serum 1b to looped/cyclic peptide (PEPSCAN-ELISA) [3]: 0.1
Binding of serum 2 to linear peptides of protein X1 of SARS-CoV Urbani [3]: 0.4
Binding of serum 2 to looped/cyclic peptide (PEPSCAN-ELISA) [3]: 0.1
Binding of serum 6 to linear peptides of protein X1 of SARS-CoV Urbani [3]: 0.6
Binding of serum 6 to looped/cyclic peptide (PEPSCAN-ELISA) [3]: 0.2
Binding of serum 37 to linear peptides of protein X1 of SARS-CoV Urbani [3]: 0.6
Binding of serum 37 to looped/cyclic peptide (PEPSCAN-ELISA) [3]: 0.2
Binding of serum 62 to linear peptides of protein X1 of SARS-CoV Urbani [3]: 0.4
Binding of serum 62 to looped/cyclic peptide (PEPSCAN-ELISA) [3]: 0.3
Binding of serum London to linear peptides of protein X1 of SARS-CoV Urbani [3]: 0.5
Binding of serum London to looped/cyclic peptide (PEPSCAN-ELISA) [3]: 0.2
Binding of serum SARS-green to linear peptides of protein X1 of SARS-CoV Urbani [3]: 0.2
Binding of serum SARS-green to looped/cyclic peptide (PEPSCAN-ELISA) [3]: 0.1
Binding of serum SARS-yellow to linear peptides of protein X1 of SARS-CoV Urbani [3]: 0.4
Binding of serum SARS-yellow to looped/cyclic peptide (PEPSCAN-ELISA) [3]: 0.1

MSRRRLLACLCKHKK
Binding of a rabbit serum to linear peptides [1]: 0.2
Binding of a rabbit serum to looped peptides [1]: 0.3
Binding of Control Serum Blood-Bank to Looped peptides [2]: 0.3
Binding of Control serum Blood-bank to linear peptides [2]: 0.7
Binding of Control serum LUMC to linear peptides [2]: 0.5
Binding of Control serum LUMC to looped peptides [2]: 0.2
Binding of serum 1a to looped/cyclic peptides of protein X2 of SARS-CoV Urbani [3]: 0.2
Binding of serum 1b to looped/cyclic peptides of protein X2 of SARS-CoV Urbani [3]: 0.1
Binding of serum 2 to looped/cyclic peptides of protein X2 of SARS-CoV Urbani [3]: 0.0
Binding of serum 6 to looped/cyclic peptides of protein X2 of SARS-CoV Urbani [3]: 0.1
Binding of serum 37 to looped/cyclic peptides of protein X2 of SARS-CoV Urbani [3]: 0.2
Binding of serum 62 to looped/cyclic peptides of protein X2 of SARS-CoV Urbani [3]: 0.3
Binding of serum London to looped/cyclic peptides of protein X2 of SARS-CoV Urbani [3]: 0.1
Binding of serum SARS-green to looped/cyclic peptides of protein X2 of SARS-CoV Urbani [3]: 0.1
Binding of serum SARS-yellow to looped/cyclic peptides of protein X2 of SARS-CoV Urbani [3]: 0.1
Recognition of the peptide by sera of SARS-CoV infected individuals, and form (linear, looped/cyclic) in which it is recognized [3]: recognized in linear form

MWLSYFVASFRLFAR
Rabbit serum linear peptides [1]: 0.4
Rabbit serum looped peptides [1]: 0.5
Binding of Control Serum Blood-Bank to Looped peptides of the protein M of SARS-CoV Urbani [2]: 0.7
Binding of Control serum Blood-bank to linear peptides of the protein M of SARS-CoV Urbani [2]: 0.5
Binding of Control serum LUMC to linear peptides of the protein M of SARS-CoV Urbani [2]: 0.2
Binding of Control serum LUMC to looped peptides of the protein M of SARS-CoV Urbani [2]: 0.7
Binding of serum 1a to linear peptides of protein M of SARS-CoV Urbani [3]: 0.6
Binding of serum 1b to linear peptides of protein M of SARS-CoV Urbani [3]: 0.3
Binding of serum 2 to linear peptides of protein M of SARS-CoV Urbani [3]: 0.5
Binding of serum 6 to linear peptides of protein M of SARS-CoV Urbani [3]: 0.3
Binding of serum 37 to linear peptides of protein M of SARS-CoV Urbani [3]: 0.6
Binding of serum 62 to linear peptides of protein M of SARS-CoV Urbani [3]: 0.7
Binding of serum London to linear peptides of protein M of SARS-CoV Urbani [3]: 0.3
Binding of serum SARS-green to linear peptides of protein M of SARS-CoV Urbani [3]: 0.2
Binding of serum SARS-yellow to linear peptides of protein M of SARS-CoV Urbani [3]: 0.1
Recognition of the peptide by sera of SARS-CoV infected individuals, and form (linear, looped/cyclic) in which it is recognized [3]: recognized in looped/cyclic form
